Common to all, as to assay type: physicochemical
The nature of data set [1]: Static surface tension by the Wilhelmy method (plate method). As to conditions: 0.1 wt. % aqueous solution, left 1 day, 25° C. The protocol:
For the measurement of surface tension, a uniform liquid was used that was obtained by heating each compound at about 60° C. The compounds were each dissolved in water to prepare 10 g of 0.1 wt. % aqueous solutions. After the aqueous solutions were left to stand for 1 day, the static surface tension thereof was measured at 25° C. according to the Wilhelmy method (plate method). The measurement instrument used was a “SURFACE TENSIOMETER CBVP-A3” (product of Kyowa Interface Science Co., Ltd.).

A short description of data set [2]: Dynamic surface tension by the maximum bubble pressure method. The note with it: 0.5 wt. % aqueous solution, 25° C., at 100 milliseconds. The protocol: For the measurement of dynamic surface tension, each compound was dissolved in water, heated if necessary, to prepare 80 g of 0.5 wt. % aqueous solutions. The dynamic surface tension thereof was measured at 25° C. according to the maximum bubble pressure method. The obtained value was that measured at 100 milliseconds. The measurement instrument used was a “KRUSS BUBBLE PRESSURE TENSIOMETER-BP2”.

Data set [3] can be described thus: Water solubility evaluation, observed with the naked eye. The note with it: 25° C.; for Water Solubility 1%: 1 wt. % aqueous mixture; for Water Solubility 5%: 5 wt. % aqueous mixture; for Water Solubility 50%: 50 wt. % aqueous mixture. The protocol: For the evaluation of water solubility, a uniform liquid was used that was obtained by heating each compound at about 60° C. 5g aqueous mixtures were prepared at predetermined concentrations (1 wt. %, 5 wt. % and 50 wt. %) in capped sample bottles.

“C4F9—CH2CH(OH)CH2O—(CH2CH2O)23—C16H33 [Example 1]”: in data set [1], the “Static Surface Tension 0.10%” value came out at 24.2 mN/m. Also, the “Dynamic Surface Tension 0.50%” value in data set [2] came out at 34 mN/m. Further, in data set [3], the “Water Solubility 1%” value is listed as “Dissolved”, the “Water Solubility 5%” value is on record as “Dissolved” and the “Water Solubility 50%” value was “Dissolved”.
With “C4F9—CH2CH(OH)CH2O—(CH2CH2O)21—C12H25 [Example 5]”, the “Static Surface Tension 0.10%” value in data set [1] is 21.9 mN/m. Further, the “Dynamic Surface Tension 0.50%” value in data set [2] is 30 mN/m. Also, in data set [3], the “Water Solubility 1%” value is “Dissolved”, the “Water Solubility 5%” value was “Dissolved” and the “Water Solubility 50%” value was “Dissolved”.
For the substance “C4F9—CH2CH(OH)CH2O—(CH2CH2O)40—C16H33 [Example 3]”, the “Static Surface Tension 0.10%” value in data set [1] is 30.5 mN/m. Moreover, the “Dynamic Surface Tension 0.50%” value in data set [2] is given as 45 mN/m. For the same substance, in data set [3], the “Water Solubility 1%” value is recorded as “Dissolved”, the “Water Solubility 5%” value is on record as “Dissolved” and the “Water Solubility 50%” value was “Dissolved”.
With “C4F9—CH2CH(OH)CH2O—(CH2CH2O)25—C12H25 [Example 6]”, the “Static Surface Tension 0.10%” value in data set [1] is 23.1 mN/m. Besides, the “Dynamic Surface Tension 0.50%” value in data set [2] was 35 mN/m. Besides, in data set [3], the “Water Solubility 1%” value is “Dissolved”, the “Water Solubility 5%” value was “Dissolved” and the “Water Solubility 50%” value is “Dissolved”.
As for “C4F9—CH2CH(OH)CH2O—(CH2CH2O)23—CH2CH(OH)CH2—C4F9 [Example 7]”, the “Static Surface Tension 0.10%” value in data set [1] is given as 18.4 mN/m. Moreover, the “Dynamic Surface Tension 0.50%” value in data set [2] is recorded as 32 mN/m. Further, in data set [3], the “Water Solubility 1%” value was “Dissolved”, the “Water Solubility 5%” value is “Dissolved” and the “Water Solubility 50%” value is “Dissolved”.
Turning to “C4F9—CH2CH(OH)CH2O—(CH2CH2O)25—C16H33 [Example 2]”, the “Static Surface Tension 0.10%” value in data set [1] worked out at 23.8 mN/m. The “Dynamic Surface Tension 0.50%” value in data set [2] stood at 34 mN/m. Also, in data set [3], the “Water Solubility 1%” value is on record as “Dissolved”, the “Water Solubility 5%” value was “Dissolved” and the “Water Solubility 50%” value is listed as “Dissolved”.
In the case of “C18H33COO—(CH2CH2O)23—COC18H33 [Comparative Example 9, reference compound]”, the “Static Surface Tension 0.10%” value in data set [1] was determined as 34.8 mN/m. In addition, in data set [2], the “Dynamic Surface Tension 0.50%” value was 61 mN/m. Also, in data set [3], the “Water Solubility 1%” value is “Dissolved”, the “Water Solubility 5%” value was “Dissolved” and the “Water Solubility 50%” value is reported as “Uniform gel”.
Take “C4F9—CH2CH(OH)CH2O—(CH2CH2O)20—C18H37 [Example 4]”: the “Static Surface Tension 0.10%” value in data set [1] is 24.1 mN/m. For the same substance, the “Dynamic Surface Tension 0.50%” value in data set [2] turned out to be 36 mN/m. Moreover, in data set [3], the “Water Solubility 1%” value was “Dissolved”, the “Water Solubility 5%” value was “Dissolved” and the “Water Solubility 50%” value was “Uniform gel”.
“C4F9—CH2CH(OH)CH2O—(CH2CH2O)45—CH2CH(OH)CH2—C4F9 [Example 9]”: the “Static Surface Tension 0.10%” value in data set [1] is on record as 19.1 mN/m. Moreover, the “Dynamic Surface Tension 0.50%” value in data set [2] is 34 mN/m. In addition, in data set [3], the “Water Solubility 1%” value is “Dissolved”, the “Water Solubility 5%” value is “Dissolved” and the “Water Solubility 50%” value is reported as “Dissolved”.
Regarding “C4F9—CH2CH(OH)CH2O—(CH2CH2O)35—CH2CH(OH)CH2—C4F9 [Example 8]”, the “Static Surface Tension 0.10%” value in data set [1] is reported as 18.6 mN/m. The “Dynamic Surface Tension 0.50%” value in data set [2] is reported as 32 mN/m. Moreover, in data set [3], the “Water Solubility 1%” value is given as “Dissolved”, the “Water Solubility 5%” value is “Dissolved” and the “Water Solubility 50%” value was “Dissolved”.
For the substance “C16H33O—(CH2CH2O)15—H [Comparative Example 8, reference compound]”, the “Static Surface Tension 0.10%” value in data set [1] worked out at 37.5 mN/m. In addition, in data set [2], the “Dynamic Surface Tension 0.50%” value is given as 59 mN/m. For the same substance, in data set [3], the “Water Solubility 1%” value is given as “Dissolved”, the “Water Solubility 5%” value was “Suspended” and the “Water Solubility 50%” value is reported as “Solid”.

(Values after US20050170989A1, “Fluorine-containing water-soluble nonionic surface-active compounds, use thereof and process for preparation of the compounds” (DAIKIN INDUSTRIES, LTD., priority 2002, published 2005).)
